Assay [1] can be described thus: cells. To be noted: Mus musculus, B16-4A5, 68 h.
Description: Inhibition of theophylline-stimulated mouse B16-4A5 cell proliferation assessed as cell viability after 68 hrs by WST8 assay
Assay [2] in a line: Inhibition of theophylline-stimulated mouse B16-4A5 cell proliferation assessed as cell viability at 1000 uM after 68 hrs by WST8 assay. Particulars: B16-4A5, 68 h. Type of assay: functional. Background: Tetrazolium assays rely on reduction of a dye to a coloured formazan, in cell work by metabolically active cells.
Assay [3] is described as follows: cells. To be noted: Mus musculus, B16-4A5, 68 h, read-out: INH.
Description: Inhibition of theophylline-stimulated mouse B16-4A5 cell proliferation assessed as cell viability at 10 uM after 68 hrs by WST8 assay
Assay [4] in a line: Inhibition of melanogenesis in theophylline-stimulated mouse B16-4A5 cells at 1000 uM after 72 hrs. Type of assay: functional. To be noted: B16-4A5, 72 h.
The nature of assay [5]: cells. To be noted: Mus musculus, B16-4A5, 72 h, read-out: INH.
Description: Inhibition of melanogenesis in theophylline-stimulated mouse B16-4A5 cells at 100 uM after 72 hrs
Assay [6] can be described thus: Inhibition of melanogenesis in theophylline-stimulated mouse B16-4A5 cells at 300 uM after 72 hrs. Type of assay: functional. Particulars: B16-4A5, 72 h.
Assay [7] is described as follows: cells. To be noted: Mus musculus, B16-4A5, 72 h, read-out: INH. This is another data set of the same source.
Description: Inhibition of melanogenesis in theophylline-stimulated mouse B16-4A5 cells at 10 uM after 72 hrs
Assay [8] is described as follows: cells. To be noted: Mus musculus, B16-4A5, 68 h, read-out: INH. This is another data set of the same source.
Description: Inhibition of theophylline-stimulated mouse B16-4A5 cell proliferation assessed as cell viability at 30 uM after 68 hrs by WST8 assay
Assay [9] in a line: cells. Particulars: Mus musculus, B16-4A5, 72 h, read-out: INH. This is another data set of the same source.
Description: Inhibition of melanogenesis in theophylline-stimulated mouse B16-4A5 cells at 30 uM after 72 hrs
For assay [10], the system named is B16. In words: cells. To be noted: Mus musculus, B16, 72 h.
Description: Inhibition of melanogenesis in theophylline-stimulated mouse B16-4A5 cells after 72 hrs
The nature of assay [11]: cells. To be noted: Mus musculus, B16-4A5, 68 h, read-out: INH. The source holds these as a separate data set.
Description: Inhibition of theophylline-stimulated mouse B16-4A5 cell proliferation assessed as cell viability at 100 uM after 68 hrs by WST8 assay
The nature of assay [12]: Inhibition of theophylline-stimulated mouse B16-4A5 cell proliferation assessed as cell viability at 300 uM after 68 hrs by WST8 assay. Type of assay: functional. To be noted: B16-4A5, 68 h.

The structures appear in SMILES notation. Where only a bound is given, the exact number is not on record here.

The term IC50 denotes the point on the concentration scale where inhibition reaches its midpoint.

For `OC[C@H]1O[C@@H](Oc2ccc(O)cc2)[C@H](O)[C@@H](O)[C@@H]1O` [ARBUTIN], the IC50 in assay [1] was above 1 mM; in [10], 116 µM. Also, the values for the inhibition at 1000 µM in assay [2] and in assay [4] were 46.9% and 88.7%, respectively. Further, the inhibition at 10 µM was found to be 8.7% in assay [3] and 6.7% in [7]. Further, the inhibition at 100 µM in [5] is 46.9%; in [11], 21.9%. Further, the figures for the inhibition at 300 µM in [6] and in assay [12] were 71% and 20.2%, respectively. In addition, the inhibition at 30 µM in [8] came to 17.6%; in assay [9], 17.8%.

These data come from ChEMBL document CHEMBL1152510, “Melanogenesis inhibitors from the rhizomes of Alpinia officinarum in B16 melanoma cells” (Bioorg Med Chem, 2009).
